Patent US10807985B2 (Blueprint Medicines Corporation, priority 2013, dated 2020)
pIC50: −log10 of the molar value.

Assays:
[1] = target: D816V KIT (Homo sapiens (Human), UniProt P10721, D816V); assay: KIT D816V assay at Km (Caliper electrophoretic mobility shift); conditions: biochemical, 15 uM ATP (Km), 90 minutes at 25 C; read-out: INH KIT D816V
[2] = target: KIT D816V kinase activity (KIT autophosphorylation at tyrosine 719) in HMC1.2 cells (Homo sapiens (Human), UniProt P10721, D816V/V560G); assay: HMC1.2 autophosphorylation assay (phospho-Y719 c-KIT AlphaLISA); assay type: cell-based; conditions: HMC1.2 mast cell leukemia cell line (KIT V560G, D816V), 90 minutes compound; read-out: INH-KIT-PHOS-HMC1.2
KIT D816V kinase activity (KIT autophosphorylation at tyrosine 719) in HMC1.2 cells, sequence (P10721 26-976 V560G/D816V): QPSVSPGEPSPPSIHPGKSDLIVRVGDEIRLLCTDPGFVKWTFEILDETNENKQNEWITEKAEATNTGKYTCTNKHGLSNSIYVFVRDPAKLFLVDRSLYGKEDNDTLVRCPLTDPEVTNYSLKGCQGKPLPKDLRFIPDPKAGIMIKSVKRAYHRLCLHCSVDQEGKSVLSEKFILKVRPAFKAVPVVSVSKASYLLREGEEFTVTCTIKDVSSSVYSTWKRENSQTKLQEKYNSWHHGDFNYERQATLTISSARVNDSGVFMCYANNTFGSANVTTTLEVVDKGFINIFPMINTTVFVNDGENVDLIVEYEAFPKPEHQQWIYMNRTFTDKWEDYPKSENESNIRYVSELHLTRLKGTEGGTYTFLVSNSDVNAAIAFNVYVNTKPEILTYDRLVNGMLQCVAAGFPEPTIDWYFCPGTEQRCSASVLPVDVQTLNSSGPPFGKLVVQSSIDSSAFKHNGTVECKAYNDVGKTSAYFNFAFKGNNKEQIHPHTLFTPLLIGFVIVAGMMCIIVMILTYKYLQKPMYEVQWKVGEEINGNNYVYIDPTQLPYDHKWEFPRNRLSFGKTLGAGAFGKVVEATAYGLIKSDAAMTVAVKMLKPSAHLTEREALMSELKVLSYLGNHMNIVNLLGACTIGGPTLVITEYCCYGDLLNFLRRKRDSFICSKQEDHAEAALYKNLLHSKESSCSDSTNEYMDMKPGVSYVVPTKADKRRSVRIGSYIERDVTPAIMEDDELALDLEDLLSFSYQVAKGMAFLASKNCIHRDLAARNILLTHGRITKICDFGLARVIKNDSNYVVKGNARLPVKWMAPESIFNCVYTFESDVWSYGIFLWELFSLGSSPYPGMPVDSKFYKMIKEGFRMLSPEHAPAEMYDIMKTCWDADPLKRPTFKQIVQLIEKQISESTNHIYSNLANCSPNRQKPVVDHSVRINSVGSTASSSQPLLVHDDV

D816V KIT, sequence (P10721 26-976 D816V): as the sequence (P10721 26-976 V560G/D816V) above, with G535V counted along it

c1ccc(Cc2cnc(N3CCN(c4ncnn5cc(-c6cnn(C[C@@H]7CNCCO7)c6)cc45)CC3)nc2)cc1 [Compound 120]
pIC50 [1]: > 9.00 | pIC50 [2]: 7.00 to 7.30

Cn1cc(-c2cc3c(N4CCN(c5ncc([C@@](C)(O)c6ccc(F)cn6)cn5)CC4)ncnn3c2)cn1 [Compound 54]
pIC50 [1]: 8.00 to 9.00 | pIC50 [2]: 6.00 to 7.00

Cc1nn(C)cc1-c1cc2c(N3CCN(c4ncc([C@@](C)(O)c5ccc(F)cc5)cn4)CC3)ncnn2c1 (single isomer, unassigned) [Compound 72]
pIC50 [1]: > 9.00 | pIC50 [2]: > 7.30

NC(=O)c1ccc(-c2cc3c(N4CCN(c5ncc(Cc6ccccc6)cn5)CC4)ncnn3c2)cc1 [Compound 33]
pIC50 [1]: 8.00 to 9.00 | pIC50 [2]: 6.00 to 7.00

CO[C@@](C)(c1ccc(F)cc1)c1cnc(N2CCN(c3ncnn4cc(-c5cnn(C)c5)cc34)CC2)nc1 [Compound 67]
pIC50 [1]: 7.00 to 8.00 | pIC50 [2]: 6.00 to 7.00

C[C@@H](c1ccc(F)cc1)c1cnc(N2CCN(c3ncnn4cc(-c5cnn(C)c5)cc34)C[C@H]2CO)nc1 [Compound 73]
pIC50 [1]: 8.00 to 9.00 | pIC50 [2]: > 7.30

Cn1cc(-c2cc3c(N4CCN(c5ncc([C@](N)(c6ccc(F)cc6)C(F)F)cn5)CC4)ncnn3c2)cn1 [Compound 112]
pIC50 [1]: 8.00 to 9.00 | pIC50 [2]: 6.00 to 7.00

Cn1cc(-c2cc3c(N4CCN(c5ccc(C(O)c6ccccc6)cn5)CC4)ncnn3c2)cn1 (stereo not shown) [Compound 11]
pIC50 [1]: 8.00 to 9.00 | pIC50 [2]: 6.00 to 7.00

COc1cc(OC)cc(-c2cc3c(N4CCN(c5ccccc5)CC4)ncnn3c2)c1 [Compound 4]
pIC50 [1]: < 7.00 | pIC50 [2]: < 5.00

COc1cccc(-c2cc3c(N4CCN(c5ncc([C@@](C)(O)c6ccc(F)cc6)cn5)CC4)ncnn3c2)c1 [Compound 101]
pIC50 [1]: 7.00 to 8.00 | pIC50 [2]: 7.00 to 7.30

Cn1cc(-c2cc3c(N4CCN(c5ncc([C@@](O)(CF)c6ccc(F)cc6)cn5)CC4)ncnn3c2)cn1 [Compound 95]
pIC50 [1]: > 9.00 | pIC50 [2]: 7.00 to 7.30

Cc1ccc(-c2cc3c(N4CCN(c5ncc([C@@](C)(O)c6ccc(F)cc6)cn5)CC4)ncnn3c2)s1 [Compound 82]
pIC50 [1]: 7.00 to 8.00 | pIC50 [2]: 6.00 to 7.00

Cn1cc(-c2cc3c(N4CCN(c5ncc([C@@](O)(c6ccc(F)cc6)C6CC6)cn5)CC4)ncnn3c2)cn1 [Compound 104]
pIC50 [1]: 8.00 to 9.00 | pIC50 [2]: 6.00 to 7.00

CCn1cc(-c2cc3c(N4CCN(c5ncc([C@@](C)(N)c6ccc(F)cc6)cn5)CC4)ncnn3c2)cn1 [Compound 63]
pIC50 [1]: > 9.00 | pIC50 [2]: > 7.30

C=C(c1ccc(F)cc1)c1cnc(N2CCN(c3ncnn4cc(-c5cnn(C)c5)cc34)CC2)nc1 [Compound 23]
pIC50 [1]: 7.00 to 8.00 | pIC50 [2]: 6.00 to 7.00

C[C@@](O)(c1ccc(F)cc1)c1cnc(N2CCN(c3ncnn4cc(-c5ccc(F)cc5)cc34)CC2)nc1 [Compound 64]
pIC50 [1]: 7.00 to 8.00 | pIC50 [2]: 6.00 to 7.00

Cn1cc(-c2cc3c(N4CCN(c5ncc(Sc6ccccc6F)c(N)n5)CC4)ncnn3c2)cn1 [Compound 56]
pIC50 [1]: > 9.00 | pIC50 [2]: > 7.30

Cn1cc(-c2cc3c(N4CCN(c5ncc([C@@](C)(O)c6ccccc6F)cn5)CC4)ncnn3c2)cn1 [Compound 47]
pIC50 [1]: > 9.00 | pIC50 [2]: > 7.30

Cn1cc(-c2cc3c(N4CCN(c5ncc([C@](C)(O)c6ccc(F)cc6Cl)cn5)CC4)ncnn3c2)cn1 [Compound 109]
pIC50 [1]: 7.00 to 8.00 | pIC50 [2]: 6.00 to 7.00

Cc1ncc(-c2cc3c(N4CCN(c5ncc([C@@](C)(O)c6ccc(F)cc6)cn5)CC4)ncnn3c2)s1 [Compound 88]
pIC50 [1]: > 9.00 | pIC50 [2]: > 7.30

C[C@](O)(c1ccc(F)cc1)c1cnc(N2CCN(c3ncnn4cc(-c5cccc(F)c5)cc34)CC2)nc1 [Compound 66]
pIC50 [1]: 8.00 to 9.00 | pIC50 [2]: 6.00 to 7.00

CCn1cc(-c2cc3c(N4CCN(c5ncc([C@@](C)(O)c6ccc(F)cc6)cn5)CC4)ncnn3c2)cn1 [Compound 75]
pIC50 [1]: > 9.00 | pIC50 [2]: > 7.30

Cc1cc(-c2cc3c(N4CCN(c5ncc([C@@](C)(O)c6ccc(F)cc6)cn5)CC4)ncnn3c2)no1 (single isomer, unassigned) [Compound 52]
pIC50 [1]: 8.00 to 9.00 | pIC50 [2]: 6.00 to 7.00

Cn1cc(-c2cc3c(N4CCN(c5ncc([C@@H](CO)c6ccc(F)cc6)cn5)CC4)ncnn3c2)cn1 [Compound 49]
pIC50 [1]: > 9.00 | pIC50 [2]: > 7.30

CN(C)[C@H](c1ccccc1)c1cnc(N2CCN(c3ncnn4cc(-c5cnn(C)c5)cc34)CC2)nc1 [Compound 37]
pIC50 [1]: 7.00 to 8.00 | pIC50 [2]: 5.00 to 6.00

Cn1cc(-c2cc3c(N4CCN(c5ncc([C@@](C)(O)c6ccc(Cl)cc6)cn5)CC4)ncnn3c2)cn1 [Compound 83]
pIC50 [1]: > 9.00 | pIC50 [2]: > 7.30

Cc1nn(C)cc1-c1cc2c(N3CCN(c4ncc([C@](C)(O)c5ccc(F)cc5)cn4)CC3)ncnn2c1 (single isomer, unassigned) [Compound 71]
pIC50 [1]: 8.00 to 9.00 | pIC50 [2]: 7.00 to 7.30

Cn1cc(-c2cc3c(N4CCN(c5ncc([C@@](C)(O)c6ccccc6)cn5)CC4)ncnn3c2)cn1 [Compound 25]
pIC50 [1]: > 9.00 | pIC50 [2]: > 7.30

N#Cc1ccc(-c2cc3c(N4CCN(c5ncc(Cc6ccccc6)cn5)CC4)ncnn3c2)cc1 [Compound 16]
pIC50 [1]: 8.00 to 9.00 | pIC50 [2]: 6.00 to 7.00

Cc1ccc(-c2cc3c(N4CCN(c5ncc([C@@](C)(O)c6ccc(F)cc6)cn5)CC4)ncnn3c2)cc1 [Compound 59]
pIC50 [1]: 7.00 to 8.00 | pIC50 [2]: 6.00 to 7.00

C[C@](N)(c1ccccc1)c1cnc(N2CCN(c3ncnn4cc(-c5cn[nH]c5)cc34)CC2)nc1 (single isomer, unassigned) [Compound 12]
pIC50 [2]: > 7.30

Cn1cc(-c2cc3c(N4CCN(c5ncc([C@](C)(O)c6ccccc6F)cn5)CC4)ncnn3c2)cn1 [Compound 48]
pIC50 [1]: 8.00 to 9.00 | pIC50 [2]: > 7.30

Cc1cc(-c2cc3c(N4CCN(c5ncc([C@](C)(O)c6ccc(F)cc6)cn5)CC4)ncnn3c2)no1 (single isomer, unassigned) [Compound 51]
pIC50 [1]: 7.00 to 8.00

Cn1cc(-c2cn3ncnc(N4CCN(c5ncc([C@](C)(O)c6ccc(F)cc6)cn5)CC4)c3c2F)cn1 [Compound 89]
pIC50 [1]: < 7.00 | pIC50 [2]: 5.00 to 6.00

COc1ccc(-c2cc3c(N4CCN(c5ccccc5)CC4)ncnn3c2)cc1OC [Compound 5]
pIC50 [1]: 7.00 to 8.00 | pIC50 [2]: 5.00 to 6.00

Cn1cc(-c2cc3c(N4CCN(c5ncc([C@](O)(c6ccc(F)cc6)C6CC6)cn5)CC4)ncnn3c2)cn1 [Compound 103]
pIC50 [1]: 8.00 to 9.00 | pIC50 [2]: 6.00 to 7.00

Cc1ccc(-c2cc3c(N4CCN(c5ncc([C@](C)(O)c6ccc(F)cc6)cn5)CC4)ncnn3c2)s1 [Compound 81]
pIC50 [1]: 7.00 to 8.00 | pIC50 [2]: 5.00 to 6.00

Cn1cc(-c2cc3c(N4CCN(c5ncc([C@H](N)c6ccc(F)cc6)cn5)CC4)ncnn3c2)cn1 [Compound 28]
pIC50 [1]: 8.00 to 9.00 | pIC50 [2]: > 7.30

Cn1cc(-c2cn3ncnc(N4CCN(c5ncc(C(C)(O)c6ccc(F)cc6)cn5)CC4)c3c2Cl)cn1 (stereo in doubt) [Compound 107, (S)-1-(2-(4-(5-chloro-6-(1-methyl-1H-pyrazol-4-yl)pyrrolo[1,2-f][1,2,4]triazin-4-yl)piperazin-1-yl)pyrimidin-5-yl)-1-(4-fluorophenyl)ethanol]
pIC50 [1]: < 7.00 | pIC50 [2]: 5.00 to 6.00

Cc1ccc(-c2cc3c(N4CCN(c5ncc([C@@](C)(O)c6ccc(F)cc6)cn5)CC4)ncnn3c2)cn1 [Compound 60]
pIC50 [1]: 8.00 to 9.00 | pIC50 [2]: > 7.30

Cn1cc(-c2cc3c(N4CCN(c5ncc([C@H](N)c6ccccc6)cn5)CC4)ncnn3c2)cn1 [Compound 13, (R)-(2-(4-(6-(1-methyl-1H-pyrazol-4-yl)pyrrolo[2,1-f][1,2,4]triazin-4-yl)piperazin-1-yl)pyrimidin-5-yl)(phenyl)methanamine]
pIC50 [1]: 8.00 to 9.00 | pIC50 [2]: 6.00 to 7.00

Cn1cc(-c2cc3c(N4CCN(c5ncc([C@](O)(c6ccc(F)cc6)C(F)F)cn5)CC4)ncnn3c2)cn1 [Compound 118]
pIC50 [1]: 8.00 to 9.00 | pIC50 [2]: 6.00 to 7.00

Cn1cc(-c2cc3c(N4CCN(c5ncc([C@@H](O)c6ccc(F)cc6)cn5)CC4)ncnn3c2)cn1 [Compound 31]
pIC50 [1]: 8.00 to 9.00 | pIC50 [2]: > 7.30

Cn1cc(-c2cc3c(N4CCN(c5ncc(C6(c7ccc(F)cc7)COC6)cn5)CC4)ncnn3c2)cn1 [Compound 61]
pIC50 [1]: 8.00 to 9.00 | pIC50 [2]: 6.00 to 7.00

Cn1cc(-c2cc3c(N4CCN(c5ncc([C@](C)(O)c6c(F)cccc6F)cn5)CC4)ncnn3c2)cn1 [Compound 91]
pIC50 [1]: > 9.00 | pIC50 [2]: 7.00 to 7.30

Cn1cc(-c2cc3c(N4CCN(c5ncc([C@H](CO)c6ccc(F)cc6)cn5)CC4)ncnn3c2)cn1 [Compound 50]
pIC50 [1]: 8.00 to 9.00 | pIC50 [2]: > 7.30

Cc1cc(F)ccc1[C@](C)(O)c1cnc(N2CCN(c3ncnn4cc(-c5cnn(C)c5)cc34)CC2)nc1 [Compound 80]
pIC50 [1]: 7.00 to 8.00

Cn1cc(-c2cc3c(N4CCN(c5ncc([C@@](C)(O)c6c(F)cccc6F)cn5)CC4)ncnn3c2)cn1 [Compound 92]
pIC50 [1]: 8.00 to 9.00 | pIC50 [2]: > 7.30

Cn1cc(-c2cc3c(N4CCN(c5ncc(Oc6ccc(F)cc6)cn5)CC4)ncnn3c2)cn1 [Compound 15]
pIC50 [1]: 7.00 to 8.00 | pIC50 [2]: 6.00 to 7.00

Cn1cc(-c2cc3c(N4CCN(c5ncc([C@@](C)(N)c6c(F)cc(F)cc6F)cn5)CC4)ncnn3c2)cn1 [Compound 114]
pIC50 [1]: > 9.00 | pIC50 [2]: > 7.30

Cn1cc(-c2cc3c(N4CCN(c5ncc([C@H](O)c6ccc(F)cc6)cn5)CC4)ncnn3c2)cn1 [Compound 32]
pIC50 [1]: 8.00 to 9.00 | pIC50 [2]: > 7.30

Cn1cc(-c2cc3c(N4CCN(c5ncc([C@@](C)(N)c6ccc(F)cc6F)cn5)CC4)ncnn3c2)cn1 [Compound 85]
pIC50 [1]: > 9.00 | pIC50 [2]: > 7.30

Cc1c(-c2cc3c(N4CCN(c5ncc(Cc6ccccc6)cn5)[C@H](C)C4)ncnn3c2)cnn1C [Compound 19]
pIC50 [1]: 8.00 to 9.00 | pIC50 [2]: 6.00 to 7.00

Cn1cc(-c2cn3ncnc(N4CCN(c5ncc([C@@](C)(O)c6ccc(F)cc6)cn5)CC4)c3c2Cl)cn1 [Compound 108]
pIC50 [1]: < 7.00 | pIC50 [2]: 5.00 to 6.00

Cn1cc(-c2cc3c(N4CCN(c5ccccc5)CC4)ncnn3c2)cn1 [Compound 1]
pIC50 [1]: < 7.00
